From ChEMBL document CHEMBL1287719, “N⁶-Alkyladenosines: Synthesis and evaluation of in vitro anticancer activity” (Bioorg Med Chem, 2010)
Calls of active or inactive are those of the source. No cut-off for these calls is given here.

Columns and labels:
J82 = assay: Cytotoxicity against human J82 cells at 10 uM after 72 hrs by MTT assay; type: functional, cell-based
T-24 [1] = assay: Cytotoxicity against human T24 cells assessed as inhibition of clones formation at 10 uM after 1 week by clonogenic assay; type: functional, cell-based
Caco-2 = assay: Cytotoxicity against human Caco-2 cells at 10 uM after 72 hrs by MTT assay; type: functional, cell-based
T-24 [2] = assay: Growth inhibition of human T24 cells assessed as reduction of cell count after trypsinization at 10 uM after 72 hrs by MTT assay; type: functional, cell-based
T-24 [3] = assay: Inhibition of human T24 cell migration by wound healing assay; type: functional, cell-based
MDA-MB-231 = assay: Cytotoxicity against human MDA-MB-231 cells at 10 uM after 72 hrs by MTT assay; type: functional, cell-based
T-24 [4] = assay: Cytotoxicity against human T24 cells at 10 uM after 72 hrs by MTT assay; type: functional, cell-based
[5] = biological target: Matrix metalloproteinase-9 (Homo sapiens) (UniProt P14780); assay: Induction of MMP9 activity in human T24 cells after 1 hr by zymography; type: cell-based; settings: T-24
Sequence of Matrix metalloproteinase-9 (Homo sapiens) (P14780 whole entry): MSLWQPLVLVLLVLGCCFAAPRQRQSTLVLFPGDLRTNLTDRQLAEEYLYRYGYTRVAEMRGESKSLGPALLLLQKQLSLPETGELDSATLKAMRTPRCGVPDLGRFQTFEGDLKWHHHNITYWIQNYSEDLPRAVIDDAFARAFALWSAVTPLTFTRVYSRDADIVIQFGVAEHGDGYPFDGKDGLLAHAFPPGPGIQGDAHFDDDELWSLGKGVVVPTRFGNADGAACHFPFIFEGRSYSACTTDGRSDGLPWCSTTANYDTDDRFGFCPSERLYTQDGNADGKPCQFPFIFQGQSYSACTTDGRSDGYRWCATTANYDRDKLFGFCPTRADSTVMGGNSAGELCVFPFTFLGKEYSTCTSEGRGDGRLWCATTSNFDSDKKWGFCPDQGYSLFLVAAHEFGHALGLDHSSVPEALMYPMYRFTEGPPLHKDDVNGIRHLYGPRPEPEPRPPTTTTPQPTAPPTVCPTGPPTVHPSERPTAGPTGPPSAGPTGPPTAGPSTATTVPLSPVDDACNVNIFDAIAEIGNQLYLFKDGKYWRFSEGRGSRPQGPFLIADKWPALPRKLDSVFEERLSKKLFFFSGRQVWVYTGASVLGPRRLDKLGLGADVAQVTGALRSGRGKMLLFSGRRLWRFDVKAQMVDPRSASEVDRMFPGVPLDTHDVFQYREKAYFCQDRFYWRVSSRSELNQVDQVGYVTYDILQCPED

T-24 [6] = assay: Inhibition of human T24 cells invasion on Matrigel after 24 hrs; type: functional, cell-based

SMILES | Activity [5] | Activity (J82) | Activity (T-24 [1]) | Activity (Caco-2) | Activity (T-24 [2]) | Activity (T-24 [3]) | Activity (MDA-MB-231) | Activity (T-24 [4]) | inhibition (T-24 [6])
CC(C)CCNc1ncnc2c1ncn2[C@@H]1O[C@H](CO)[C@@H](O)[C@H]1O | inactive | Active | Active | Active | Active | inactive | Active | Active | inactive
OC[C@H]1O[C@@H](n2cnc3c(NCc4ccccc4)ncnc32)[C@H](O)[C@@H]1O | inactive | Active | Active | Active | Active | inactive | Active | Active | inactive
CCCCNc1ncnc2c1ncn2[C@@H]1O[C@H](CO)[C@@H](O)[C@H]1O | inactive | Active | Active | Active | Active | inactive | Active | Active | inactive

Second part, led by results:

Activity [5] | SMILES | Activity (J82) | Activity (T-24 [1]) | Activity (Caco-2) | Activity (T-24 [2]) | Activity (T-24 [3]) | Activity (MDA-MB-231) | Activity (T-24 [4]) | inhibition (T-24 [6])
inactive | C=CCNc1ncnc2c1ncn2[C@@H]1O[C@H](CO)[C@@H](O)[C@H]1O | Active | Active | Active | Active | inactive | Active | Active | inactive
inactive | OC[C@H]1O[C@@H](n2cnc3c(NCC4CCC4)ncnc32)[C@H](O)[C@@H]1O | Active | Active | Active | Active | inactive | Active | Active | inactive
